Test results taken from patent US20050074867A1, “Preservation of competent cells at ambient temperatures” (priority 2001, published 2005).
“And” between values parts separate entries of the source, which are not always exact repeats. Equal values may be shown once.

Assays:
[1] = test system: Escherichia coli ATCC strain MM294 cells; test: Electroporation of E. coli MM294 cells with pUC18 (survival and efficiency); type: cell-based; conditions: cells loaded with 10% MAG, preserved (dried); average of three independent experiments
Protocol: (2) Electroporation of fresh E. coli electrocompetent cells: Two aliquots of the concentrated cells (50 μl each) were transferred into pre-chilled Eppendorf tubes (1.5 ml) and 2 μl of pUC18 plasmid DNA (approx. 300 ng/μl) were added to the tubes. The [cells+DNA] mixtures were incubated on ice for 5 minutes and transferred into pre-chilled cuvettes for electroporation. The cells were electroporated by using a BTX T-100 electroporator, at 625 or at 800 volts (V) in BTX cuvettes (0.1 cm gap, P/N 610 Disposable Cuvettes) with a time constant “r” equal 5 msec. Under the pulse conditions described above, the cells were subjected to an electrical field “E” equal to 6.25 kV/cm or 8.0 kV/cm.
Immediately after the pulse, the cells were transferred into small glass tubes (10×100 mm) with 0.5 ml of “outgrowth medium” (L-broth+20% sucrose+10 mM CaCl2). The electroporated bacteria were incubated at 37° C. with moderate shaking (150 rpm) for 60 minutes. When the 60 minutes period elapsed, the cells were diluted in “outgrowth medium” and duplicate samples were spread plated on L-agar plates with no antibiotic (to determine electroporation survival) and on L-agar plates with 50 μg/ml or 100 μg/ml of ampicillin (selective marker on pUC18 plasmid; to determine electroporation efficiency). The plates were incubated overnight at 37° C. and the colonies were counted the next day.
(6) Electroporation of dried (preserved) E. coli cells: One or two 50 μl aliquots were removed from each rehydrated vial and transferred to pre-chilled Eppendorf tubes. The cells were mixed with pUC18 plasmid DNA (300 ng/μl) and electroporated using the conditions described previously for the electroporation of fresh electrocompetent cells.
Electroporation survival was calculated as the number of viable cells recovered after electrical pulse per total number of electroportated cells. Electroporation efficiency was calculated as the number of transformants (cells which received pUC18 plasmid DNA) per number of cells recovered after electroporation (electroporation survival). When applicable, the electroporation efficiency was also expressed as number of transformants per 1 μg of pUC18 DNA (Cfu/μg).
In this experiment, the cells were washed twice in ice-cold 20% sucrose and concentrated 100-fold after the second wash. Additionally, four samples were prepared (A, B, C, and D). […] Additional solution consisting of 22.5% 4:1 sucrose:MAG was prepared and evaluated for preservation of the cells (sample D). […] Electroporation survival and efficiencies in samples rehydrated with solutions containing different amounts of sucrose were determined. […] Electroporation survival and efficiencies were determined and compared.

[2] = test system: commercial electrocompetent E. coli cells; test: Preservation yield and stability of commercial electrocompetent E. coli cells; type: cell-based
Protocol: (4) Preservation of electrocompetent E. coli cells: The cells (resuspended in PBS buffer or on 20% sucrose) were mixed with an equal mass of preservation solution consisting of 45% 2:1 sucrose:raffinose or 45% 4:1 sucrose:MAG on ice. Altematively, the cell pellets were resuspended directly in 22.5% sucrose:raffinose or 22.5% 4:1 sucrose:MAG. The 0.5 g aliquots were distributed in 5 ml glass serum vials or 0.2 g aliquots were distributed in 1.2 ml glass serum vials. To determine the survival in preservation solution before drying, cell-containing mixtures were diluted in PBS buffer containing 20% sucrose and appropriate dilutions were spread plated in duplicate on L-agar plates.
The samples were dried by foam formation. The mixtures were foamed at 0° C. and kept at that temperature until foam formation occurred. After foam was well formed, shelf temperature was increased to 20° C. and drying continued overnight (at least 12 hours).
When applicable, electrocompetent cells were frozen in the following manner. The cell suspension (100 μl) was mixed with 10% DMSO (10 μl) and slowly frozen at −80° C.
(5) Assaying the preserved E. coli cells: Dried samples were rehydrated at room temperature. 1 ml of rehydration solution (20% sucrose) was added to the 5 ml vials and 0.2 ml was added to the 1.2 ml vials. For the determination of preservation survival, rehydrated cells were diluted and spread plated in duplicate on L-agar plates. Plates were incubated at 37° C. overnight and colonies were counted the following day.
In this example, commercial electrocompetent E. coli cells, in the form of a bacterial pellet, were preserved by the foam formation process. The cells were concentrated 100-fold and preserved as described previously. To increase desiccation tolerance and enhance preservation survival. One aliquot of the cells were loaded in vitro with 10% MAG. The preserved cells were stored at 4° C. In addition to preservation by foam formation, the cells were preserved by slow freezing (with 10% DMSO) at −80° C.

[3] = Frozen cells 72 hours at −80° C., foam formation-preserved cells (loaded with 10% MAG) dried overnight
[4] = foam-preserved cells stored at 4° C., frozen cells at −80° C.

## COC1OC(CO)C(O)C(O)C1O (centres unmarked) [MAG, a-methyl-glucoside]
[1]
  Electroporation Efficiency 10^−3%: 5.6 10^−3%
  Electroporation Efficiency Cfu/ml: 1.7 × 10^5 Cfu/ml
  Electroporation Survival (%): 28.6%
  Electroporation Survival Cfu/ml: 3.0 × 10^9 Cfu/ml
[2]; [3]
  Preservation Yield Cfu/ml: 8.8 × 10^9 +/− 3.9 × 10^8 Cfu/ml
  Preservation yield %: 63.6% and 63.6 +/− 2.8%
[2]; [4]
  Stability (12 days) %: 68.5% and 68.5 +/− 0.8%
  Stability (12 days) Cfu/ml: 9.5 × 10^9 +/− 1.1 × 10^8 Cfu/ml
